Test system: not listed separately
Test: in vivo
Details: mouse, in vivo, po
Description: By using male ddY-strain 5-week old mice (3 to 4 per group), the compounds of general formula (1) were each administered orally or intraperitoneally as a solution in saline or as a suspension in methyl cellulose, and 24 hours after the administration, the toxicity of the compounds was evaluated.

Row | Structure (SMILES) | LD50 at 24 h [mg/kg]
1 | CCC1CCN(CCCOc2ccc3c(c2)OCC3=O)CC1 [Compound 1274] | < 300
2 | O=C1COc2cc(OCCCN3CCC(CO)CC3)ccc21 [Compound 1290] | < 300

Same assay, conditions: mouse, in vivo, po, LD50 p.o., p.o., 24 hours after administration, male ddY mice

Row | Structure (SMILES) | LD50 at 24 h [mg/kg]
3 | CCCCCCC[N+](CC)(CC)CCCOc1ccc2oc(=O)cc(C)c2c1 [Compound 630] | > 300
4 | CC1CCCCN1CCCOc1ccc2c(c1)OCC2=O (centres unmarked) [Compound 1114] | > 300
5 | CC1CCN(CCCOc2ccc3c(c2)OCC3=O)CC1 [Compound 1122] | > 300
6 | CC(C)C1CCN(CCCOc2ccc3c(c2)OCC3=O)CC1 [Compound 1278] | > 300
7 | CCOC(=O)C1CCN(CCCOc2ccc3c(c2)OCC3=O)CC1 [Compound 1282] | > 300
8 | O=C1COc2cc(OCCCN3CCC4(CC3)OCCO4)ccc21 [Compound 1298] | > 300

Test system: Purkinje fiber
Test: Effect on APD (APD75, field-stimulated right ventricular free wall)
Type: cell-based, adult mongrel dog
Details: Canis lupus familiaris, purkinje, 20 min, dose 1 μg/ml, 20 minutes incubation, 37° C., 1 Hz; control before drug = 100%; read-out: APD75 % (percent change in APD75)
Description: The pharmacological effects of the compounds of this invention represented by general formula (1) were studied. By using the heart of an adult mongrel dog, the activity of the compounds of general formula (1) were tested in vitro and in vivo. The heart of an anaethetized dog was extracted and suspended in a chamber at 37° C. in Tyrode's solution. The drug was added to Tyrode's solution being perfused through the heart specimen, and electrophysiological effects of the drug on cardiac action potential duration (APD) and maximum rate of depolarization were studied. An anaethetized dog was cut open at the chest.
An adult mongrel dog was anaethetized with intravenous administration of pentobarbital, 30 mg/kg. The heart was quickly removed, and the right ventricular free wall was dissected in the Tyrode's solution. The right ventricular free wall was fixed within an incubator at 37° C., and field stimulation at 1 Hz was carried out. Intracellular potentials were measured by piercing glass microelectrodes (10-20 megaohms) into the Purkinje fiber and the wave form of cardiac action potential drawn on an oscilloBraun tube via an amplifier was analyzed by a computer. Value of APD was obtained at 75% of full repolarization (APD75). The drug was added to Tyrode's solution (20 ml) perfused through the specimen. The effect of the drug was expressed by a percent change in APD75 after incubation for 20 minutes with the control value of APD before application of the drug being taken as 100%.

Row | Structure (SMILES) | activation at 1 µg/mL [%]
9 | CC1CCCCN1CCCOc1ccc2c(c1)OCC2=O (centres unmarked) [Compound 1114] | 11
10 | CC1CCN(CCCOc2ccc3c(c2)OCC3=O)CC1 [Compound 1122] | 4
11 | CCC1CCN(CCCOc2ccc3c(c2)OCC3=O)CC1 [Compound 1274] | 6

Same assay, conditions: Canis lupus familiaris, purkinje, 20 min, dose 3 μg/ml, 20 minutes incubation, 37° C., 1 Hz; control before drug = 100%; read-out: APD75 % (percent change in APD75)

Row | Structure (SMILES) | activation at 3 µg/mL [%]
12 | CCCCCCC[N+](CC)(CC)CCCOc1ccc2oc(=O)cc(C)c2c1 [Compound 630] | 25
13 | CC1CCCCN1CCCOc1ccc2c(c1)OCC2=O (centres unmarked) [Compound 1114] | 22
14 | CC1CCN(CCCOc2ccc3c(c2)OCC3=O)CC1 [Compound 1122] | 15
15 | CCC1CCN(CCCOc2ccc3c(c2)OCC3=O)CC1 [Compound 1274] | 19
16 | CC(C)C1CCN(CCCOc2ccc3c(c2)OCC3=O)CC1 [Compound 1278] | 9
17 | CCOC(=O)C1CCN(CCCOc2ccc3c(c2)OCC3=O)CC1 [Compound 1282] | 11
18 | O=C1COc2cc(OCCCN3CCC(CO)CC3)ccc21 [Compound 1290] | 11

Same assay, conditions: Canis lupus familiaris, purkinje, 20 min, dose 10 μg/ml, 20 minutes incubation, 37° C., 1 Hz; control before drug = 100%; read-out: APD75 % (percent change in APD75)

Row | Structure (SMILES) | activation at 10 µg/mL [%]
19 | CCCCCCC[N+](CC)(CC)CCCOc1ccc2oc(=O)cc(C)c2c1 [Compound 630] | 48
20 | CC1CCCCN1CCCOc1ccc2c(c1)OCC2=O (centres unmarked) [Compound 1114] | 35
21 | CC1CCN(CCCOc2ccc3c(c2)OCC3=O)CC1 [Compound 1122] | 42
22 | CC(C)C1CCN(CCCOc2ccc3c(c2)OCC3=O)CC1 [Compound 1278] | 24
23 | CCOC(=O)C1CCN(CCCOc2ccc3c(c2)OCC3=O)CC1 [Compound 1282] | 19
24 | O=C1COc2cc(OCCCN3CCC(CO)CC3)ccc21 [Compound 1290] | 28

Molecular target: T1, serotonine 2 receptor (Rattus norvegicus, UniProt P14842)
T1 construct: frontal cortex fraction prepared from the brain of a Wistar male rat; from tissue; host or cells: rat brain frontal cortex (Wistar, male), membrane fraction
T1 sequence (P14842 whole entry): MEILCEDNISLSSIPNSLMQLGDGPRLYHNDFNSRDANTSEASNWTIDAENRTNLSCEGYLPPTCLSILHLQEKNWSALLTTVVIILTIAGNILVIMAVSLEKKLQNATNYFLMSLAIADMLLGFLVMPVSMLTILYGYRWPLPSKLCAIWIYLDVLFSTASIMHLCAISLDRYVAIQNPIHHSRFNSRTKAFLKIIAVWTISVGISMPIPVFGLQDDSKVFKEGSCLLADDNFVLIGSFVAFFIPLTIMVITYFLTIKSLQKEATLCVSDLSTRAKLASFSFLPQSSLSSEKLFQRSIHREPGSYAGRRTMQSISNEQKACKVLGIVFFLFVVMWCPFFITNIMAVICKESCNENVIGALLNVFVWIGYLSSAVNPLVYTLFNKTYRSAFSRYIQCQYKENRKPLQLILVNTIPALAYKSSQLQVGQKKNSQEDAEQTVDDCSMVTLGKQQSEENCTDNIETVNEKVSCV
Test: [3H]ketanserin binding assay (affinity for serotonine 2 receptor)
Design: species or system Wistar male rat
Details: rat frontal cortex, 1 nM [3H] ketanserin, 37° C., 10 minutes
Description: (§1) Striatal membranes fractions were prepared from a rat brain, and the affinity of the compounds of this invention on dopamine 2 receptors was determined by using [^3 H] spiperone assay from membranes fractions as an index. Moreover, frontal cortex membranes were prepared from a rat brain, and the affinity of the test drugs on serotonine 2 receptor was determined by using [^3 H] ketenserin binding assay. It was shown that the compounds of general formula (1) of the invention have marked anti-dopamine activity and anti-serotonine activity.
[^3 H] ketanserin binding assay
The affinity of the compound of the invention was determined on the basis of the ability to substitute [^3 H] ketanserin from a frontal cortex fraction prepared from the brain of a Wistar male rat.
The rat was decapitated, and the brain was obtained. The frontal cortex was homogenized in 40 volumes of 50 mM Tris-HCl buffer (pH 7.6), and then centrifuged. The pellets were again homogenized in 100 volumes of the same buffer, and used in a binding test. The binding test was conducted by the following procedure.
The frontal cortex (original tissue weight 1 mg/ml), 100 microliters of a test drug and 1 nM of [^3 H] ketanserin were incubated at 37° C. for 10 minutes in 50 mM Tris-HCl buffer (pH 7.6). Then, the reaction mixture was suction-filtered through a glass fiber filter (Watmann GF/B) and washed with a buffer three times.
The filter was put in a scintillation cocktail (ACSII, Amersham Co.), and after mixing, left to stand overnight. The radioactivity held on the filter was measured by a liquid scintillation counter. The nonspecific binding was measured in the presence of 1 μM of methysergide. The concentration of the test drug which inhibited 50% of a specific binding was determined from the graph and defined as IC5. Ki was calculated from the following equation. [formula]

Row | Structure (SMILES) | Ki [nM]
25 | O=C1COc2cc(OCCCN(Cc3ccccc3)Cc3ccccc3)ccc21 [Compound 176] | > 600
26 | O=C1COc2cc(OCCCN3CCC(c4ccccc4)CC3)ccc21 [Compound 1138] | 173
27 | O=C1COc2cc(OCCCN3CCC4(CC3)OCCO4)ccc21 [Compound 1298] | 382

Molecular target: T2, dopamine 2 receptor (Rattus norvegicus, UniProt P61169)
T2 construct: membrane fractions prepared from the brain a Wistarstrain male rat; from tissue; host or cells: rat brain striatum (Wistar, male), membrane fraction
T2 sequence (P61169 whole entry): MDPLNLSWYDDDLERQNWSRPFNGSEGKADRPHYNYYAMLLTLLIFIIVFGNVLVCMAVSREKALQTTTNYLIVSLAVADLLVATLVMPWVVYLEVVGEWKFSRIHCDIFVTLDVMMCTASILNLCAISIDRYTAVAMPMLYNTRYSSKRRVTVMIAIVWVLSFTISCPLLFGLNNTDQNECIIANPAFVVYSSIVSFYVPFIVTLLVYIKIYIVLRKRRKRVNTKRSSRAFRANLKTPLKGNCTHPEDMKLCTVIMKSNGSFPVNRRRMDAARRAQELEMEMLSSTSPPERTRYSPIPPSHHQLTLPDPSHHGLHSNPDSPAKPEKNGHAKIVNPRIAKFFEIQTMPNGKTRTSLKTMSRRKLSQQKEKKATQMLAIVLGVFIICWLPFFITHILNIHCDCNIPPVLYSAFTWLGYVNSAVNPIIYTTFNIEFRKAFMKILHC
Test: [3H]spiperone binding assay (affinity for dopamine 2 receptor)
Design: species or system Wistar-strain male rat
Details: rat striatal membranes, 0.5 nM [3H] spiperone, 37° C., 10 minutes
Description: as §1
[^3 H]spiperone binding assay
The affinity of the compounds of this invention to the dopamine 2 receptor was determined on the basis of the ability to substitute [^3 H] spiperone from stratal membrane fractions prepared from the brain a Wistarstrain male rat.
The rat was decapitated, and the brain was obtained. The striatum was homogenized in 40 volumes of 50 mM Tris-HCl buffer (pH 7.6), and then centrifuged. The pellets were again homogenized in 50 volumes of the same buffer, and used in a binding test. The binding test was conducted by the following procedure.
The stria (original tissue weight 20 mg/ml), 100 microliters of a test drug and 0.5 nM of [^3 H] spiperone were incubated at 37° C. for 10 minutes in 50 mM Tris-HCl buffer (pH 7.6). Then, the reaction mixture was suction-filtered through a glass fiber filter (Watmann GF/B) and washed with a buffer three times.
The filter was put in a scintillation cocktail (ACSII, Amersham Co.), and after mixing, left to stand overnight. The radioactivity held on the filter was measured by a liquid scintillation counter. The nonspecific binding was measured in the presence of 1 μM of (+) butaclamol. The concentration of the test drug which inhibited 50% of a specific binding was determined from the graph and defined as IC50. Ki was calculated from the following equation. [formula]

Row | Structure (SMILES) | Ki [nM]
28 | O=C1COc2cc(OCCCN(Cc3ccccc3)Cc3ccccc3)ccc21 [Compound 176] | > 400
29 | O=C1COc2cc(OCCCN3CCC(c4ccccc4)CC3)ccc21 [Compound 1138] | 329
30 | O=C1COc2cc(OCCCN3CCC4(CC3)OCCO4)ccc21 [Compound 1298] | > 400

Test system: right ventricle (effective refractory period)
Test: Activity on ERP of the right ventricle
Type: in vivo, adult mongrel dog
Details: Canis lupus familiaris, iv; 0.1 mg/kg i.v.; ERP before drug = 100%; read-out: ERP % (ERP prolonging activity)
Description: The pharmacological effects of the compounds of this invention represented by general formula (1) were studied. By using the heart of an adult mongrel dog, the activity of the compounds of general formula (1) were tested in vitro and in vivo. The heart of an anaethetized dog was extracted and suspended in a chamber at 37° C. in Tyrode's solution. The drug was added to Tyrode's solution being perfused through the heart specimen, and electrophysiological effects of the drug on cardiac action potential duration (APD) and maximum rate of depolarization were studied. An anaethetized dog was cut open at the chest. […] In an anaethetized and open-chested adult mongrel dug, a silver-silver chloride electrode was sutured to the right ventricle, and ventricular pacing was performed at a stimulation interval of 400 msec for a duration time of 4 msec, twice diastolic threshold. Then, a small amount of alcohol was injected through the sinus artery to extinguish the pacemaker activity, and under ventricular pacing, ERP was measured. Ten stimulations were taken as one train, and the interval between trains when the response to the first stimulation disappeared was defined as ERP. […] ERP before drug administration (intravenously or intraduodenally) was taken as 100%, and ERP prolonging activity of the drugs was expressed by %.

Row | Structure (SMILES) | change in vivo at 0.1 mg/kg [%]
31 | CCCCCCC[N+](CC)(CC)CCCOc1ccc2oc(=O)cc(C)c2c1 [Compound 630] | 3
32 | CCC1CCN(CCCOc2ccc3c(c2)OCC3=O)CC1 [Compound 1274] | 0
33 | CC(C)C1CCN(CCCOc2ccc3c(c2)OCC3=O)CC1 [Compound 1278] | 1.6 ± 1.6
34 | CCOC(=O)C1CCN(CCCOc2ccc3c(c2)OCC3=O)CC1 [Compound 1282] | 0
35 | O=C1COc2cc(OCCCN3CCC(CO)CC3)ccc21 [Compound 1290] | 0

Same assay, conditions: Canis lupus familiaris, iv; 0.3 mg/kg i.v.; ERP before drug = 100%; read-out: ERP % (ERP prolonging activity)

Row | Structure (SMILES) | change in vivo at 0.3 mg/kg [%]
36 | CCCCCCC[N+](CC)(CC)CCCOc1ccc2oc(=O)cc(C)c2c1 [Compound 630] | 5
37 | CCC1CCN(CCCOc2ccc3c(c2)OCC3=O)CC1 [Compound 1274] | 6.7
38 | CC(C)C1CCN(CCCOc2ccc3c(c2)OCC3=O)CC1 [Compound 1278] | 4.8 ± 1.6
39 | CCOC(=O)C1CCN(CCCOc2ccc3c(c2)OCC3=O)CC1 [Compound 1282] | 0
40 | O=C1COc2cc(OCCCN3CCC(CO)CC3)ccc21 [Compound 1290] | 5.9

Same assay, conditions: Canis lupus familiaris, iv; 1 mg/kg i.v.; ERP before drug = 100%; read-out: ERP % (ERP prolonging activity)

Row | Structure (SMILES) | change in vivo at 1 mg/kg [%]
41 | CCCCCCC[N+](CC)(CC)CCCOc1ccc2oc(=O)cc(C)c2c1 [Compound 630] | 8
42 | CC1CCCCN1CCCOc1ccc2c(c1)OCC2=O (centres unmarked) [Compound 1114] | 3
43 | CC1CCN(CCCOc2ccc3c(c2)OCC3=O)CC1 [Compound 1122] | 9
44 | CCC1CCN(CCCOc2ccc3c(c2)OCC3=O)CC1 [Compound 1274] | 13.3
45 | CC(C)C1CCN(CCCOc2ccc3c(c2)OCC3=O)CC1 [Compound 1278] | 13 ± 2.4
46 | CCOC(=O)C1CCN(CCCOc2ccc3c(c2)OCC3=O)CC1 [Compound 1282] | 6
47 | O=C1COc2cc(OCCCN3CCC(CO)CC3)ccc21 [Compound 1290] | 11.8

Same assay, conditions: Canis lupus familiaris, iv; 3 mg/kg i.v.; ERP before drug = 100%; read-out: ERP % (ERP prolonging activity)

Row | Structure (SMILES) | change in vivo at 3 mg/kg [%]
48 | CC1CCCCN1CCCOc1ccc2c(c1)OCC2=O (centres unmarked) [Compound 1114] | 8
49 | CC1CCN(CCCOc2ccc3c(c2)OCC3=O)CC1 [Compound 1122] | 15
50 | CCC1CCN(CCCOc2ccc3c(c2)OCC3=O)CC1 [Compound 1274] | 13.3
51 | CC(C)C1CCN(CCCOc2ccc3c(c2)OCC3=O)CC1 [Compound 1278] | 19.8 ± 0.6
52 | CCOC(=O)C1CCN(CCCOc2ccc3c(c2)OCC3=O)CC1 [Compound 1282] | 6
53 | O=C1COc2cc(OCCCN3CCC(CO)CC3)ccc21 [Compound 1290] | 17.7

From patent publication US5192799A, “Coumaran group containing amine compounds and their acid addition salts and quaternary ammonium salts and the use thereof as anti arrhythmic agents and as psychotropic agents” (Mitsui Petrochemical Industries, Ltd., priority 1987, dated 1993)
